Read-outs that look alike come from different tables or passages of the source.
Legend:
LXRβ = LXRβ (Homo sapiens (Human), UniProt P55055); assay: In vitro assay LXRβ: PathHunter NHR CHO cells, LXRβ / Steroid Receptor Co-activator Peptide enzyme fragment complementation; type: cell-based
Procedure, shortened: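 Co-activator recruitment measured by chemiluminescence after signal generation. The CHO line carries full-length human LXRβ tagged with ProLink and an SRCP–enzyme acceptor fusion in the nucleus; cells sat overnight at 37° C before testing, in charcoal-dextran filtered serum medium with 1% final vehicle.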

SREBP-2 = SREBP-2 (Homo sapiens (Human), UniProt Q12772); assay: In vitro assay SREBP-2: PathHunter U2OS SREBP-2 Nuclear Translocation Cell Line, U18666A-stimulated; type: cell-based; conditions: PathHunter U2OS SREBP-2 nuclear translocation cells, U18666A 10 μM, overnight (16 hours)
[1] = PathHunter NHR CHO cells, full-length human LXRβ and SRCP, chemiluminescent signal, read-out: LXRβ PPI

LXRβ, sequence (P55055 whole entry, the tested form may be a part): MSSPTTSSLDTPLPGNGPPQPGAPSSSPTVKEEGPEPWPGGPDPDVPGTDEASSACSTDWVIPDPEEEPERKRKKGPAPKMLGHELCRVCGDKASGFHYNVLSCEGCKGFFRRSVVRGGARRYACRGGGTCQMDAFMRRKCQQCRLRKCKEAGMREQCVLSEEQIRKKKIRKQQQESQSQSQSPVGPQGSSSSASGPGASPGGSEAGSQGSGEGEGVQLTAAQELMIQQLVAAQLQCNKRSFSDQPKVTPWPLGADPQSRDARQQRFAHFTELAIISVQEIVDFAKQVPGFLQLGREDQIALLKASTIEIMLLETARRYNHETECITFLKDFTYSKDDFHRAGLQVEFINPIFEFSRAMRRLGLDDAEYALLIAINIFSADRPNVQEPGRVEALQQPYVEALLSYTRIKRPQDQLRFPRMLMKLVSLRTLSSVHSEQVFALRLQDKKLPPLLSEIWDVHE

Row | SMILES | EC50 (LXRβ; [1]) [µM] | IC50 (SREBP-2) [µM] | EC50 (LXRβ) [µM]
1 | C[C@H](CCc1ccc(F)cn1)[C@H]1CC[C@H]2[C@@H]3CC=C4C[C@@H](O)CC[C@]4(C)[C@H]3CC[C@]12C [Example 162, (1R,3aS,3bS,7S,9aR,9bS,11aR)-1-[(2R)-4-(5-fluoropyridin-2-yl)butan-2-yl]-9a,11a-dimethyl-1H,2H,3H,3aH,3bH,4H,6H,7H,8H,9H,9aH,9bH,10H,11H,11aH-cyclopenta[a]phenanthren-7-ol] | 1 to 10 | < 0.25 | –
2 | Cc1ncncc1CC[C@@H](C)[C@H]1CC[C@H]2[C@@H]3CC=C4C[C@@H](O)CC[C@]4(C)[C@H]3CC[C@]12C [Example 188, (3S,8S,9S,10R,13R,14S,17R)-10,13-dimethyl-17-((R)-4-(4-methylpyrimidin-5-yl)butan-2-yl)-2,3,4,7,8,9,10,11,12,13,14,15,16,17-tetradecahydro-1H-cyclopenta[a]phenanthren-3-ol] | 1 to 10 | < 0.25 | –
3 | C[C@H](OC(=O)C(=O)N1CCC1)[C@H]1CC[C@H]2[C@@H]3CC=C4C[C@@H](O)CC[C@]4(C)[C@H]3CC[C@]12C [Example 155, (1S)-1-[(1S,3aS,3bS,7S,9aR,9bS,11aS)-7-hydroxy-9a,11a-dimethyl-1H,2H,3H,3aH,3bH,4H,6H,7H,8H,9H,9aH,9bH,10H,11H,11aH-cyclopenta[a]phenanthren-1-yl]ethyl 2-(azetidin-1-yl)-2-oxoacetate] | > 10 | 1 to 10 | –
4 | C[C@H](CCC(=O)N1CC[C@@H](C(O)(C(F)(F)F)C(F)(F)F)C1)[C@H]1CC[C@H]2[C@@H]3CC=C4C[C@@H](O)CC[C@]4(C)[C@H]3CC[C@]12C [Example 98, (R)-1-((R)-3-(1,1,1,3,3,3-hexafluoro-2-hydroxypropan-2-yl)pyrrolidin-1-yl)-4-((3S,8S,9S,10R,13R,14S,17R)-3-hydroxy-10,13-dimethyl-2,3,4,7,8,9,10,11,12,13,14,15,16,17-tetradecahydro-1H-cyclopenta[a]phenanthren-17-yl)pentan-1-one] | > 10 | < 0.25 | –
5 | C[C@H](CCC(=O)N1OC(C)(C)[C@H]2COC[C@H]21)[C@H]1CC[C@H]2[C@@H]3CC=C4C[C@@H](O)CC[C@]4(C)[C@H]3CC[C@]12C [Example 49, (R)-1-((3aR,6aS)-3,3-dimethyltetrahydro-1H,3H-furo[3,4-c]isoxazol-1-yl)-4-((3S,8S,9S,10R,13R,14S,17R)-3-hydroxy-10,13-dimethyl-2,3,4,7,8,9,10,11,12,13,14,15,16,17-tetradecahydro-1H-cyclopenta[a]phenanthren-17-yl)pentan-1-one] | 0.25 to 1 | 0.25 to 1 | –
6 | C[C@H](CCc1ncccc1C(C)(C)O)[C@H]1CC[C@H]2[C@@H]3CC=C4C[C@@H](O)CC[C@]4(C)[C@H]3CC[C@]12C [Example 248, (3S,8S,9S,10R,13R,14S,17R)-17-((R)-4-(3-(2-hydroxypropan-2-yl)pyridin-2-yl)butan-2-yl)-10,13-dimethyl-2,3,4,7,8,9,10,11,12,13,14,15,16,17-tetradecahydro-1H-cyclopenta[a]phenanthren-3-ol] | – | < 0.25 | < 0.25
7 | COC(C)C1CCN(C(=O)CC[C@@H](C)[C@H]2CC[C@H]3[C@@H]4CC=C5C[C@@H](O)CC[C@]5(C)[C@H]4CC[C@]23C)CC1 (stereo partly drawn) [Example 469, (4R)-4-((3S,8S,9S,10R,13R,14S,17R)-3-hydroxy-10,13-dimethyl-2,3,4,7,8,9,10,11,12,13,14,15,16,17-tetradecahydro-1H-cyclopenta[a]phenanthren-17-yl)-1-(4-(1-methoxyethyl)piperidin-1-yl)pentan-1-one] | 0.25 to 1 | < 0.25 | –
8 | Cc1nnc(N2CCN(C(=O)CC[C@@H](C)[C@H]3CC[C@H]4[C@@H]5CC=C6C[C@@H](O)CC[C@]6(C)[C@H]5CC[C@]34C)CC2)o1 [Example 482, (R)-4-((3S,8S,9S,10R,13R,14S,17R)-3-hydroxy-10,13-dimethyl-2,3,4,7,8,9,10,11,12,13,14,15,16,17-tetradecahydro-1H-cyclopenta[a]phenanthren-17-yl)-1-(4-(5-methyl-1,3,4-oxadiazol-2-yl)piperazin-1-yl)pentan-1-one] | > 10 | < 0.25 | –
9 | C[C@H](CCC(=O)N(C)C1CCN(C(=O)C2CC2)CC1)[C@H]1CC[C@H]2[C@@H]3CC=C4C[C@@H](O)CC[C@]4(C)[C@H]3CC[C@]12C [Example 642, (R)—N-(1-(cyclopropanecarbonyl)piperidin-4-yl)-4-((3S,8S,9S,10R,13R,14S,17R)-3-hydroxy-10,13-dimethyl-2,3,4,7,8,9,10,11,12,13,14,15,16,17-tetradecahydro-1H-cyclopenta[a]phenanthren-17-yl)-N-methylpentanamide] | > 10 | < 0.25 | –
10 | C[C@H](CCC(=O)N1CCN(c2cnn(C)c2)[C@@H](C)C1)[C@H]1CC[C@H]2[C@@H]3CC=C4C[C@@H](O)CC[C@]4(C)[C@H]3CC[C@]12C [Example 656, (R)-4-((3S,8S,9S,10R,13R,14S,17R)-3-hydroxy-10,13-dimethyl-2,3,4,7,8,9,10,11,12,13,14,15,16,17-tetradecahydro-1H-cyclopenta[a]phenanthren-17-yl)-1-((S)-3-methyl-4-(1-methyl-1H-pyrazol-4-yl)piperazin-1-yl)pentan-1-one] | > 10 | < 0.25 | –
11 | C[C@H](CCC(=O)N1CCN(C(=O)OC2CC2)C[C@@H]1C)[C@H]1CC[C@H]2[C@@H]3CC=C4C[C@@H](O)CC[C@]4(C)[C@H]3CC[C@]12C [Example 584] | > 10 | < 0.25 | –
12 | CC(=O)N1CCOC12CN(C(=O)CC[C@@H](C)[C@H]1CC[C@H]3[C@@H]4CC=C5C[C@@H](O)CC[C@]5(C)[C@H]4CC[C@]13C)C2 [Example 410, (4R)-4-[(1R,3aS,3bS,7S,9aR,9bS,11aR)-7-hydroxy-9a,11a-dimethyl-1H,2H,3H,3aH,3bH,4H,6H,7H,8H,9H,9aH,9bH,10H,11H,11aH-cyclopenta[a]phenanthren-1-yl]-1-{δ-acetyl-5-oxa-2,8-diazaspiro[3.4]octan-2-yl}pentan-1-one] | > 10 | 1 to 10 | –
13 | C[C@H](CCC(=O)N1C[C@@H]2C[C@]2(c2ccccc2)C1)[C@H]1CC[C@H]2[C@@H]3CC=C4C[C@@H](O)CC[C@]4(C)[C@H]3CC[C@]12C [Example 78, (4R)-4-((3S,8S,9S,10R,13R,14S,17R)-3-hydroxy-10,13-dimethyl-2,3,4,7,8,9,10,11,12,13,14,15,16,17-tetradecahydro-1H-cyclopenta[a]phenanthren-17-yl)-1-(1-phenyl-3-azabicyclo[3.1.0]hexan-3-yl)pentan-1-one] | 1 to 10 | < 0.25 | –
14 | Cc1nnc(N2CCN(C(=O)CC[C@@H](C)[C@H]3CC[C@H]4[C@@H]5CC=C6C[C@@H](O)CC[C@]6(C)[C@H]5CC[C@]34C)C[C@@H]2C)o1 [Example 634, (4R)-4-[(1R,3aS,3bS,7S,9aR,9bS,11aR)-7-hydroxy-9a,11a-dimethyl-1H,2H,3H,3aH,3bH,4H,6H,7H,8H,9H,9aH,9bH,10H,11H,11aH-cyclopenta[a]phenanthren-1-yl]-1-[(3S)-3-methyl-4-(5-methyl-1,3,4-oxadiazol-2-yl)piperazin-1-yl]pentan-1-one] | > 10 | < 0.25 | –
15 | C[C@H](CCC(=O)N1CCC[C@@H](c2ccccc2)C1)[C@H]1CC[C@H]2[C@@H]3CC=C4C[C@@H](O)CC[C@]4(C)[C@H]3CC[C@]12C [Example 76, (R)-4-((3S,8S,9S,10R,13R,14S,17R)-3-hydroxy-10,13-dimethyl-2,3,4,7,8,9,10,11,12,13,14,15,16,17-tetradecahydro-1H-cyclopenta[a]phenanthren-17-yl)-1-((S)-3-phenylpiperidin-1-yl)pentan-1-one] | 1 to 10 | < 0.25 | –
16 | CCCN(OC)C(=O)CC[C@@H](C)[C@H]1CC[C@H]2[C@@H]3CC=C4C[C@@H](O)CC[C@]4(C)[C@H]3CC[C@]12C [Example 13, (R)-4-((3S,8S,9S,10R,13R,14S,17R)-3-hydroxy-10,13-dimethyl-2,3,4,7,8,9,10,11,12,13,14,15,16,17-tetradecahydro-1H-cyclopenta[a]phenanthren-17-yl)-N-methoxy-N-propylpentanamide] | 0.25 to 1 | < 0.25 | –
17 | C[C@H](CCc1ncccc1Cl)[C@H]1CC[C@H]2[C@@H]3CC=C4C[C@@H](O)CC[C@]4(C)[C@H]3CC[C@]12C [Example 184, bis((1R,3aS,3bS,7S,9aR,9bS,11aR)-1-[(2R)-4-(3-chloropyridin-2-yl)butan-2-yl]-9a,11a-dimethyl-1H,2H,3H,3aH,3bH,4H,6H,7H,8H,9H,9aH,9bH,10H,11H,11aH-cyclopenta[a]phenanthren-7-ol)] | 1 to 10 | < 0.25 | –
18 | CCC1(O)CCN(C(=O)C(=O)O[C@@H](C)[C@H]2CC[C@H]3[C@@H]4CC=C5C[C@@H](O)CC[C@]5(C)[C@H]4CC[C@]23C)CC1 [Example 200, (S)-1-((3S,8S,9S,10R,13S,14S,17S)-3-hydroxy-10,13-dimethyl-2,3,4,7,8,9,10,11,12,13,14,15,16,17-tetradecahydro-1H-cyclopenta[a]phenanthren-17-yl)ethyl 2-(4-ethyl-4-hydroxypiperidin-1-yl)-2-oxoacetate] | 1 to 10 | < 0.25 | –
19 | C[C@H](CCC(=O)N1CCN(c2ccnn2C)C[C@@H]1C)[C@H]1CC[C@H]2[C@@H]3CC=C4C[C@@H](O)CC[C@]4(C)[C@H]3CC[C@]12C [Example 609, (R)-4-((3S,8S,9S,10R,13R,14S,17R)-3-hydroxy-10,13-dimethyl-2,3,4,7,8,9,10,11,12,13,14,15,16,17-tetradecahydro-1H-cyclopenta[a]phenanthren-17-yl)-1-((S)-2-methyl-4-(1-methyl-1H-pyrazol-5-yl)piperazin-1-yl)pentan-1-one] | > 10 | < 0.25 | –

From patent publication US20230340011A1 (Asteroid Therapeutics, priority 2022, published 2023)
